Results as given in article PMC10810011 (Expert opinion on drug delivery, 2023).

Experiments:
[1] = molecular target: D2S dopamine (Homo sapiens, UniProt P14416); experiment: InVEST radioligand filter binding, D2S dopamine; details: M13 20 μM, 100 = no effect
[2] = molecular target: Muscarinic M3 (Homo sapiens, UniProt P20309); experiment: InVEST radioligand filter binding, Muscarinic M3; details: M13 20 μM, 100 = no effect
[3] = molecular target: PDE3A (Homo sapiens, UniProt Q14432); experiment: InVEST enzymatic activity, PDE3A; format: biochemical; details: M13 20 μM, 100 = no effect
Sequence of PDE3A (Q14432 whole entry): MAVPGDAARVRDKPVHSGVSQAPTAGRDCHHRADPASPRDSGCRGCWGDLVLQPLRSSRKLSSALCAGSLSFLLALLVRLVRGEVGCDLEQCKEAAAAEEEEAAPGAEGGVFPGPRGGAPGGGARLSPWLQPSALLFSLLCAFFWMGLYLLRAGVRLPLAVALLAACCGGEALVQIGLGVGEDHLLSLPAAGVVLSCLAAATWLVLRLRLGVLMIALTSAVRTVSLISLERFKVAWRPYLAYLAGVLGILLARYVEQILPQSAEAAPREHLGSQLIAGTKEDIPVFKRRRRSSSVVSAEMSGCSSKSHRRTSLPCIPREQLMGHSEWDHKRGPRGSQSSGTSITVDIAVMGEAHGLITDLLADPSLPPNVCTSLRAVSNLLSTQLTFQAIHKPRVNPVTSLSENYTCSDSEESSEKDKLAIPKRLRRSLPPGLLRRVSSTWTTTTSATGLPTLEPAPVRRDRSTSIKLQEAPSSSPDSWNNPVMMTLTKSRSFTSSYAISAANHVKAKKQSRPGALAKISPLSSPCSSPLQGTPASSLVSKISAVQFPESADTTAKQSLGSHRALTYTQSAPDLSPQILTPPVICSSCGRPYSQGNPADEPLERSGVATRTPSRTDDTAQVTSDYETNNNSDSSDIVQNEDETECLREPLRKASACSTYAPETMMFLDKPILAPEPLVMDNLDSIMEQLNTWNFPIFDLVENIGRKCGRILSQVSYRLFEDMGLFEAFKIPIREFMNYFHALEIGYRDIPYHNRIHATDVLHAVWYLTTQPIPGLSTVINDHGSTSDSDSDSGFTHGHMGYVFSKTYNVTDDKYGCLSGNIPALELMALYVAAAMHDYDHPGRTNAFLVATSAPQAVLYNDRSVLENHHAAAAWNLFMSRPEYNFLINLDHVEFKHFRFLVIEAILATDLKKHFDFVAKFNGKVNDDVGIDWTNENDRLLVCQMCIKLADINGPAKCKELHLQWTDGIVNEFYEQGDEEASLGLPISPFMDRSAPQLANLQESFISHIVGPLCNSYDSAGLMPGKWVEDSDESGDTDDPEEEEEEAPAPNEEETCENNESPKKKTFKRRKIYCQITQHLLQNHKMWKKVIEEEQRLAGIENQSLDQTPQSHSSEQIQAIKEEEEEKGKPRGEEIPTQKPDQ

[4] = tested on: HC-CSC (human colon cancer stem cells); experiment: MTT cytotoxicity, 2D HC-CSC; format: cell-based; details: 24 h
[5] = tested on: intestinal microbiota of AOM/DSS-induced CAC mice; experiment: Intestinal microbiota analysis in AOM/DSS-induced CAC mice; format: in vivo, mouse; details: feces day 60
[6] = molecular target: A2A adenosine (Homo sapiens, UniProt P29274); details: M13 20 μM, 100 = no effect
Sequence of A2A adenosine (P29274 whole entry): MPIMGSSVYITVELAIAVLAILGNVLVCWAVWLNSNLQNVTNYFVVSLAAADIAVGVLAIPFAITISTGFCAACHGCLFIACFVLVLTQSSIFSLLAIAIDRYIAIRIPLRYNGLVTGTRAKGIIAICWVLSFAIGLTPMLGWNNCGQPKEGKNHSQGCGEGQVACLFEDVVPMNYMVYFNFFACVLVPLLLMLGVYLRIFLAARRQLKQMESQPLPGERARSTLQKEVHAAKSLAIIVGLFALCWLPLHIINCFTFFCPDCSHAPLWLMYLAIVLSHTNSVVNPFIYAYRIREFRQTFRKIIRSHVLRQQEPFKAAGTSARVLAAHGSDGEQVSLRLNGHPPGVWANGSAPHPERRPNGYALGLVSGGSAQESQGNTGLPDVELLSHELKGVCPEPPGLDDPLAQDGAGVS

[7] = tested on: Salmonella typhimurium TA100; experiment: Ames test, strain TA100; details: +S9 or -S9
[8] = tested on: Caco-2/BBe cells; experiment: MTT cytotoxicity, 2D Caco-2/BBe; details: 24 h
[9] = Metabolic stability with mouse intestinal microsomes; details: 30 min incubation, HPLC
[10] = molecular target: T1, AHR-inhibition (Homo sapiens, UniProt P35869); experiment: InVEST fluorescence polarization binding/cell-based activity, AHR-inhibition; details: M13 20 μM, 100 = no effect
T1 sequence (P35869 11-848): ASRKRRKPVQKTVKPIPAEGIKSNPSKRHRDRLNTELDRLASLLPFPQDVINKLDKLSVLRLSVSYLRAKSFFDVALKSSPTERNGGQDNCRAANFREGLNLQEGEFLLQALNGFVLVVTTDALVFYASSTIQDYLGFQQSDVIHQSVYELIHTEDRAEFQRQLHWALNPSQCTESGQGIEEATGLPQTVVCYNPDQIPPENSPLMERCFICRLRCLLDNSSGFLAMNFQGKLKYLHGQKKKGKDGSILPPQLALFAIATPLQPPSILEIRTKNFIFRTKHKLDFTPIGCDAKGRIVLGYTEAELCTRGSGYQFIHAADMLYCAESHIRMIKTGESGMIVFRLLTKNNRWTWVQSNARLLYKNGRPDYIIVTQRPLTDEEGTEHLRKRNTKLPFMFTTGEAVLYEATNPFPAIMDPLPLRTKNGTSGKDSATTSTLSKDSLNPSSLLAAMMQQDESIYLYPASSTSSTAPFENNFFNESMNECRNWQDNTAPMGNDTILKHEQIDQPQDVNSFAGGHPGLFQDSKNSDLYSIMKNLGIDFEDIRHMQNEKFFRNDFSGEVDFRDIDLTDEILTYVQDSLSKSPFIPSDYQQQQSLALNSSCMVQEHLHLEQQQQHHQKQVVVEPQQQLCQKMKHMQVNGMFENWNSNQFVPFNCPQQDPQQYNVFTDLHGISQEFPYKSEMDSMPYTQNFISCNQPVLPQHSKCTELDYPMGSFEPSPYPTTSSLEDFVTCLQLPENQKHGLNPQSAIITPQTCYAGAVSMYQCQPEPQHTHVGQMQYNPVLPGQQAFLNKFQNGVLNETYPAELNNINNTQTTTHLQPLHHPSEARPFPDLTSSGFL

Sequence of D2S dopamine (P14416 1-414 isoform P14416-2): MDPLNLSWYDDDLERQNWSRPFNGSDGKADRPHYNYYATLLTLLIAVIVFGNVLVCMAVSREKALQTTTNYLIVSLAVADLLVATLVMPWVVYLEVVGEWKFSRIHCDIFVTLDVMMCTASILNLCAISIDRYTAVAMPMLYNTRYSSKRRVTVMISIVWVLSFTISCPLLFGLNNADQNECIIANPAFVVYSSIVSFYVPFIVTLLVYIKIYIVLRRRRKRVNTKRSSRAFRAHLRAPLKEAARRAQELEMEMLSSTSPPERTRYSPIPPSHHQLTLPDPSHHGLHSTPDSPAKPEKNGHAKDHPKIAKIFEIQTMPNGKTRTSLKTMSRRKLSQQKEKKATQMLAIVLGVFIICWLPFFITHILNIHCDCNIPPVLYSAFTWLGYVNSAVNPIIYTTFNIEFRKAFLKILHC
Sequence of Muscarinic M3 (P20309 whole entry): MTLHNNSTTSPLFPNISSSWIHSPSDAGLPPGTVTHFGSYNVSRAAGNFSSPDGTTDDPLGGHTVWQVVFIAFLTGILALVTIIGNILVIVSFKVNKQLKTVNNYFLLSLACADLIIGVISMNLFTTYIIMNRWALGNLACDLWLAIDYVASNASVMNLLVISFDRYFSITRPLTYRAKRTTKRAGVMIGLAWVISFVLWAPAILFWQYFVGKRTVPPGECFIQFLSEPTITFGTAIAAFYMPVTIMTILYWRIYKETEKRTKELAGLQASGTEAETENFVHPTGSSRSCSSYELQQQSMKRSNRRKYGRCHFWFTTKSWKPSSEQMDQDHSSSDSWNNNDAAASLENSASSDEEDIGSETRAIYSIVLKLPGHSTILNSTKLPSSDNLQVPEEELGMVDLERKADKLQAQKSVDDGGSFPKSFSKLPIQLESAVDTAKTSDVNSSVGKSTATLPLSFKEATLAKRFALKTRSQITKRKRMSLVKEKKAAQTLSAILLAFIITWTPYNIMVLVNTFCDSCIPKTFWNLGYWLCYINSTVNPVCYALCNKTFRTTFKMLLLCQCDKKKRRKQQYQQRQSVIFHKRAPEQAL

For `CCCCCC(CC(=O)CCc1ccc(O)c(OC)c1)SC[C@H](NC(=O)CC[C@H](N)C(=O)O)C(=O)NCC(=O)O` (stereo partly drawn) [M13, 5-glutathione-6-shogaol], the “% Activity Data 1” value ([1]; repetition 1) was 106%, the “% Activity Data 2” value ([1]; repetition 2) was 89% and the “% Activity Data 1” value ([2]; repetition 1) was 100%. For the same compound, the “% Activity Data 2” value ([2]; repetition 2) was 103%, the “% Activity Data 1” value ([3]; repetition 1) was 93% and the “% Activity Data 2” value ([3]; repetition 2) was 94%. The “fold by which IC50 against HIEC-6 is higher than against HC-CSC” value [4] was 5.8 fold, the IC50 ([4]; HC-CSC) was 17.4 µM and the “unique species (Venn diagram vs WT and AOM/DSS groups)” value [5] was “three”. For the same compound, the “% Activity Data 1” value ([6]; repetition 1) was 99%, the “% Activity Data 2” value ([6]; repetition 2) was 100% and the “number of revertant colonies” value ([7]; TA100, 156 ~ 5000 μg/plate) was “did not increase”. The mutation factor ([7]; TA100, all concentrations 156 ~ 5000 μg/plate) was “less than 1.6”, the “fold by which IC50 against HIEC-6 is higher than against Caco-2/BBe” value [8] was 6 fold and the IC50 ([8]; Caco-2/BBe) was 16.7 µM. For the same compound, the “% of the input retained after incubation with mouse intestinal microsomes” value [9] was 86%, the “% Activity Data 1” value ([10]; repetition 1) was 98% and the “% Activity Data 2” value ([10]; repetition 2) was 101%.
